Results: paper PMC5898815 (Journal of medicinal chemistry, 2018)
pKd: −log10 of the molar value. Read-outs that look alike come from different tables or passages of the source. Blank lines part the entries; values can stand above or below the compound they belong to.

Legend:
PAMPA permeability = assay type: in vitro ADME
DCN1 [1] = biological target: T1, DCN1 (Homo sapiens, UniProt Q96GG9); assay type: biochemical
Target sequence in this assay (Q96GG9 62-259 limits assumed): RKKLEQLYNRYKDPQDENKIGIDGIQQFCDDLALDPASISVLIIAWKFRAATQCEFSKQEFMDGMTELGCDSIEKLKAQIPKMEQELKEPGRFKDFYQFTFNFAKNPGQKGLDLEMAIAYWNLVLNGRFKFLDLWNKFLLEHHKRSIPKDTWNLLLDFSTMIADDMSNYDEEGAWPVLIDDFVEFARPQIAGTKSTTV

RBX1 = RBX1 (Homo sapiens, UniProt P62877); test: DCN1-independent neddylation of cullins catalyzed solely by RBX1; assay type: biochemical
Sequence of RBX1 (P62877 whole entry, species assumed): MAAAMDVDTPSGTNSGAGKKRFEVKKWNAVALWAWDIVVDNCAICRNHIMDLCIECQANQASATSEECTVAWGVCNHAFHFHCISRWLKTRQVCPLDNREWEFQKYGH
Sequence of RBX1 (Q13617 whole entry partner, species assumed): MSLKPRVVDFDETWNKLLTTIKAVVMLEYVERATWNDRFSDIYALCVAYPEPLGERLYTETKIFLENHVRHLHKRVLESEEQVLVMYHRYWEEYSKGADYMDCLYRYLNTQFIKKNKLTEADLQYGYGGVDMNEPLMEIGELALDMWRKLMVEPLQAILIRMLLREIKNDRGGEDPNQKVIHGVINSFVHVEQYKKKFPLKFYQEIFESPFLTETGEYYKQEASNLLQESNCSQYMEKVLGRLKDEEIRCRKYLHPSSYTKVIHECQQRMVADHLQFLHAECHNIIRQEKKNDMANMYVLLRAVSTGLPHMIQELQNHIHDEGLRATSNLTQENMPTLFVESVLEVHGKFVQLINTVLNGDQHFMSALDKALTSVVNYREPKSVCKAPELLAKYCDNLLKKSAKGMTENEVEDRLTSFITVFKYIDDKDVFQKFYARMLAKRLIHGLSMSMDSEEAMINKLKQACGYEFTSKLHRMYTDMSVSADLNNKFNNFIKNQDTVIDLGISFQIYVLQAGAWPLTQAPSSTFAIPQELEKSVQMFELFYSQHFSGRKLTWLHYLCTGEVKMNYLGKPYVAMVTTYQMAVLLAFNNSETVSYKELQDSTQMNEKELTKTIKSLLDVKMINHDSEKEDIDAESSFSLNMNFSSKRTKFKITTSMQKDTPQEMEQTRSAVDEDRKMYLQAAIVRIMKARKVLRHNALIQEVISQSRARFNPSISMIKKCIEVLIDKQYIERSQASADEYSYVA

NEDD8 E1 enzyme = biological target: T2, NEDD8 E1 enzyme (Homo sapiens, UniProt Q13564+Q8TBC4); test: Inhibition of the NEDD8 E1 activating enzyme; assay type: biochemical; conditions: concentrations as high as 50 μM
T2 sequence (Q8TBC4 1-463): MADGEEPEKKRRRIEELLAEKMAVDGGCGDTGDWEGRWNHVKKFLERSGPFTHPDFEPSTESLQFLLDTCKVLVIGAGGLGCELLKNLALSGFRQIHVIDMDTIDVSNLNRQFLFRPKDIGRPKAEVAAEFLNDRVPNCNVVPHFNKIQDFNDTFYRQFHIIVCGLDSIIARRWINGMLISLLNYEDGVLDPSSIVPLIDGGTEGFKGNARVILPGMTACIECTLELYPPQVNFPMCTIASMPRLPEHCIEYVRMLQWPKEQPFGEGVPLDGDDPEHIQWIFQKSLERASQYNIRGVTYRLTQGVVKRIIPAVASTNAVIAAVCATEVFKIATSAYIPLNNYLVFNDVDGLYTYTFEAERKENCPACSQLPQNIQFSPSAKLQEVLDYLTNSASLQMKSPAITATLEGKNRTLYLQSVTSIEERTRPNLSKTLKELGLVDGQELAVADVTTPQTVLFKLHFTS
T2 sequence (Q13564 1-534): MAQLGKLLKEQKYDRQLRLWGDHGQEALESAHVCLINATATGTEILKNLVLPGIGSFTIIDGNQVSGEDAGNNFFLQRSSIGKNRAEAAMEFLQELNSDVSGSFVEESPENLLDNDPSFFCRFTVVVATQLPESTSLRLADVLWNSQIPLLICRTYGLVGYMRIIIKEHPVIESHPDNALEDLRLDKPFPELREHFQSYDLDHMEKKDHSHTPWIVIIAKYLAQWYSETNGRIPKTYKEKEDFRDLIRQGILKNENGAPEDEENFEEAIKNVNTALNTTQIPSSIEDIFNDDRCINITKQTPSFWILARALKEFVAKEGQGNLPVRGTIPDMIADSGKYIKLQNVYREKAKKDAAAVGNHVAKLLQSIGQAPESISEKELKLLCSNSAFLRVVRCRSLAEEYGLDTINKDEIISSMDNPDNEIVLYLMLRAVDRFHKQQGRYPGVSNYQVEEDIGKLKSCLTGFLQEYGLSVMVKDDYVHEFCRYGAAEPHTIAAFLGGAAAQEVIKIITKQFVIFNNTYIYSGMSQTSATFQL

[2] = tested on: cullin neddylation in HCC95 cells; test: Western blot for inhibition of cellular cullin neddylation in HCC95 cells; assay type: cell-based; conditions: for Inhibition of cullin neddylation in HCC95 cells / Steady-state level of cullin neddylation for CUL1 and CUL3 / Steady-state level of cullin neddylation for CUL2, CUL4A and CUL5: 20 μM; for Inhibition of cullin neddylation in HCC95 cells: dosing at T = 0 and 24 hr, 48 hours; for Steady-state level of cullin neddylation for CUL1 and CUL3 / Steady-state level of cullin neddylation for CUL2, CUL4A and CUL5: HCC95 cells; for Accumulation of well-recognized proteasomal targets (immunoblot): acute pharmacological inhibition, Supplementary Figure 6
HCC95 cells = test: In vitro proliferation assay, HCC95 cells; assay type: cell-based
DCN1 [3] = biological target: T1, DCN1; assay type: cell-based; conditions: HCC95 cells, 10 μM, 1 h, 53 °C
Target sequence in this assay (Q96GG9 whole entry): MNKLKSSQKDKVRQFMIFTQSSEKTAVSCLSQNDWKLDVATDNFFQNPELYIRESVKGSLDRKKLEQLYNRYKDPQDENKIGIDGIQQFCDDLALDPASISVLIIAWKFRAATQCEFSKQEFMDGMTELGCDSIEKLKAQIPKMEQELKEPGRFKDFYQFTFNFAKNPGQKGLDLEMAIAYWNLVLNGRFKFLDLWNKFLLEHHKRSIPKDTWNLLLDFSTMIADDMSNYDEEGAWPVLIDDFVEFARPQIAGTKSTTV

[4] = biological target: DCN1-UBE2M protein-protein interaction (Homo sapiens, UniProt Q96GG9); assay type: binding
Sequence of DCN1-UBE2M protein-protein interaction (Q96GG9 62-259 limits assumed): as the sequence (Q96GG9 62-259 limits assumed) above

[5] = biological target: UBE2M (N-acetylated) (Homo sapiens) (UniProt P61081); conditions: cited from earlier work
Sequence of UBE2M (N-acetylated) (Homo sapiens) (P61081 whole entry): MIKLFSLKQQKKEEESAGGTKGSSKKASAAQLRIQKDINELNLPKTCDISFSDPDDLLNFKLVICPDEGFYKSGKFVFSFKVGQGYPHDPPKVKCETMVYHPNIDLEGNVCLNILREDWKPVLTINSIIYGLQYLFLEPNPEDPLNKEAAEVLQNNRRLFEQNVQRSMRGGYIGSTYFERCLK

[6] = tested on: total cellular ubiquitination; conditions: cited from earlier work
DCN3-5 = test: Pulse-chase isoform selectivity, NEDD8 transfer from UBE2M to CUL2; assay type: biochemical, human; conditions: at 50 μM
DCN1 and DCN2 = test: as above; assay type: biochemical, human; conditions: pulse-chase assay against all five DCN family members

Sequence of DCN1 (from UniProt Q96GG9) (Q96GG9 whole entry): as the sequence (Q96GG9 whole entry) above

Compound: Cn1nccc1-c1cccc(NC(=O)NC2CCN(Cc3ccccc3)CC2)c1 [Compound 32]
Pampa (PAMPA permeability): >0.0022 cm/s

Compound: CCCCN1CCC(N(Cc2ccccc2)C(=O)Nc2cccc(C(F)(F)F)c2)CC1 [Compound 49, 1-benzyl-1-(1-butylpiperidin-4-yl)-3-(3-(trifluoromethyl)phenyl)urea]
Inhibition of DCN1 stimulated NEDD8 transfer from UBE2F to the cullins (DCN1 [1]): inhibit | Inhibition of DCN1-independent neddylation of cullins catalyzed solely by RBX1 (RBX1): do not inhibit | Pampa (PAMPA permeability): >0.0022 cm/s | Inhibition of the E1 activating enzyme for NEDD8 (NEDD8 E1 enzyme): do not inhibit | Inhibition of cullin neddylation in HCC95 cells [2]: inhibited neddylation | Steady-state level of cullin neddylation for CUL1 and CUL3 [2]: selectively decreases | Steady-state level of cullin neddylation for CUL2, CUL4A and CUL5 [2]: relatively unaffected | Accumulation of well-recognized proteasomal targets (immunoblot) [2]: failed to cause gross accumulation | Growth inhibition of monolayer cultures at 20 μM (HCC95 cells): only minimally growth inhibitory | Thermal stability of the DCN1 protein (CETSA) (DCN1 [3]): clearly enhanced

Compound: Cc1cccc(CN2CCC(NC(=O)Nc3cccc(C(F)(F)F)c3)CC2)c1 [Compound 16]
Pampa (PAMPA permeability): >0.0022 cm/s

Compound: Cc1cccc(NC(=O)NC2CCN(Cc3ccccc3)CC2)c1 [Compound 26]
Potency in the TR-FRET assay (in words) [4]: practically inactive

Compound: CCCN1CCC(N(CCC)C(=O)Nc2cccc(C(F)(F)F)c2)CC1 [Compound 35]
Pampa (PAMPA permeability): 1600 ±170 ×10^−6 cm/s

Compound: O=C(Nc1cccc(C(F)(F)F)c1)NC1CCN(Cc2cccc(F)c2)CC1 [Compound 18]
Pampa (PAMPA permeability): >0.0022 cm/s

Compound: Cc1ccc(CN2CCC(NC(=O)Nc3cccc(C(F)(F)F)c3)CC2)cc1 [Compound 19]
Pampa (PAMPA permeability): >0.0022 cm/s

Compound: DCN1 (from UniProt Q96GG9)
pKd [5]: 6.00

Compound: O=C(Nc1cccc(C(F)(F)F)c1)NC1CCN(Cc2ccccc2F)CC1 [Compound 15]
Pampa (PAMPA permeability): 1500 ± 1 ×10^−6 cm/s

Compound: O=C(Nc1cccc(C(F)(F)F)c1)N(Cc1ccccc1)C1CCN(Cc2ccc(F)cc2)CC1 [Compound 68]
Pampa (PAMPA permeability; mean ± SD): >0.0022 cm/s

Compound: O=C(Nc1cccc(C(F)(F)F)c1)N(Cc1ccccc1)C1CCN(Cc2ccc3c(c2)OCO3)CC1 [Compound 70]
Pampa (PAMPA permeability; mean ± SD): >0.0022 cm/s

Compound: O=C(Nc1cccc(C(F)(F)F)c1)N(Cc1ccccc1)C1CCN(Cc2ccc3c(c2)OCCO3)CC1 [Compound 71]
Pampa (PAMPA permeability; mean ± SD): >0.0022 cm/s

Compound: CCCN1CCC(N(Cc2cc(F)cc(C(F)(F)F)c2)C(=O)Nc2cccc(C(F)(F)F)c2)CC1 [Compound 46]
Inhibition of DCN1-independent neddylation of cullins catalyzed solely by RBX1 (RBX1): do not inhibit | Pampa (PAMPA permeability): >0.0022 cm/s

Compound: CC(C)(C)N1CCC(N(Cc2ccc3c(c2)OCO3)C(=O)Nc2cccc(C(F)(F)F)c2)CC1 [Compound 73]
Inhibition of DCN1-independent neddylation of cullins catalyzed solely by RBX1 (RBX1): do not inhibit

Compound: O=C(Nc1ccccc1)NC1CCN(Cc2ccccc2)CC1 [Compound 23]
Pampa (PAMPA permeability): 1400 ± 250 ×10^−6 cm/s

Compound: CCCCN1CCC(N(Cc2ccccc2)C(=O)Nc2cccnc2)CC1 [NAcM-NEG, reference compound]
Thermal stability of the DCN1 protein (CETSA) (DCN1 [3]): largely degraded

Compound: O=C(Nc1cccc(C(F)(F)F)c1)NC1CCN(Cc2ccc(Cl)cc2)CC1 [Compound 20]
Pampa (PAMPA permeability): 1300 ± 43 ×10^−6 cm/s

Compound: NS(=O)(=O)OC[C@@H]1C[C@@H](n2ccc3c(N[C@H]4CCc5ccccc54)ncnc32)C[C@@H]1O [Pevonedistat, reference compound]
Reduction of total cellular ubiquitination [6]: 10-20% | Inhibition of cullin neddylation in cells by positive control ([2]; MLN4924 1 μM, single dose, 48 hours (Figure 7)): completely inhibits all cullin neddylation

Compound: O=C(Nc1cccc(C(F)(F)F)c1)NC1CCN(Cc2ccc(F)cc2)CC1 [Compound 21]
Pampa (PAMPA permeability): >0.0022 cm/s

Compound: CC(=O)O[C@H]1CN(Cc2ccccc2)CC[C@@H]1NC(=O)Nc1cccc(C(F)(F)F)c1 [Compound 34, (3S,4S)-1-benzyl-4-(3-(3-(trifluoromethyl)phenyl)ureido)piperidin-3-yl acetate]
Potency in the TR-FRET assay (in words) [4]: did not possess improved potency compared to our initial HTS hit 1

Compound: CCCCN(C(=O)Nc1cccc(C(F)(F)F)c1)C1CCN(CCC)CC1 [Compound 36]
Pampa (PAMPA permeability): >0.0022 cm/s

Compound: Cc1ccc(NC(=O)NC2CCN(Cc3ccccc3)CC2)cc1Cl [Compound 25]
Pampa (PAMPA permeability): >0.0022 cm/s

Compound: CCCC(C)N1CCC(N(Cc2ccccc2)C(=O)Nc2cccc(C(F)(F)F)c2)CC1 (stereo not shown) [Compound 52, 1-benzyl-1-(1-(pentan-2-yl)piperidin-4-yl)-3-(3-(trifluoromethyl)phenyl)urea]
Inhibition of DCN1 stimulated NEDD8 transfer from UBE2F to the cullins (DCN1 [1]): inhibit | Inhibition of DCN1-independent neddylation of cullins catalyzed solely by RBX1 (RBX1): do not inhibit | Inhibition of neddylation activity of DCN3-5 (DCN3-5): slight activity | Pampa (PAMPA permeability): 1400 ±39 ×10^−6 cm/s | Inhibition of the E1 activating enzyme for NEDD8 (NEDD8 E1 enzyme): do not inhibit | Inhibition of cullin neddylation in HCC95 cells [2]: inhibited neddylation | Steady-state level of cullin neddylation for CUL1 and CUL3 [2]: selectively decreases | Steady-state level of cullin neddylation for CUL2, CUL4A and CUL5 [2]: relatively unaffected | Accumulation of well-recognized proteasomal targets (immunoblot) [2]: failed to cause gross accumulation | Growth inhibition of monolayer cultures at 20 μM (HCC95 cells): only minimally growth inhibitory | Thermal stability of the DCN1 protein (CETSA) (DCN1 [3]): clearly enhanced

Compound: CCCN1CCC(N(Cc2ccccc2)C(=O)Nc2cccc(C(F)(F)F)c2)CC1 [Compound 42]
Selectivity for inhibiting neddylation activity of DCN1 and DCN2 over DCN3-5 (DCN1 and DCN2): selective and approximately equipotent inhibition | Pampa (PAMPA permeability): 1800 ± 1 ×10^−6 cm/s

Compound: Cc1ccccc1CN1CCC(NC(=O)Nc2cccc(C(F)(F)F)c2)CC1 [Compound 13]
Pampa (PAMPA permeability): 1200 ± 35 ×10^−6 cm/s

Compound: O=C(Nc1cccc(C(F)(F)F)c1)N(Cc1ccccc1)C1CCN(Cc2cccnc2)CC1 [Compound 67]
Pampa (PAMPA permeability; mean ± SD): >0.0022 cm/s

Compound: O=C(Nc1cccc(C(F)(F)F)c1)NC1CCN(Cc2cccc(Cl)c2)CC1 [Compound 17]
Pampa (PAMPA permeability): 1700 ± 1 ×10^−6 cm/s

Other lines, results leading:

Pampa (PAMPA permeability): 1400 ± 540 ×10^−6 cm/s
Compound: CCCCCN1CCC(N(Cc2ccccc2)C(=O)Nc2cccc(C(F)(F)F)c2)CC1 [Compound 50]

Pampa (PAMPA permeability): >0.0022 cm/s
Compound: O=C(Nc1cccc(C(F)(F)F)c1)N(Cc1ccccc1)C1CCNCC1 [Compound 47]

Pampa (PAMPA permeability): 1900±200 ×10^−6 cm/s
Compound: CCCN1CCC(N(CC(C)C)C(=O)Nc2cccc(C(F)(F)F)c2)CC1 [Compound 37]

Pampa (PAMPA permeability): >0.0022 cm/s
Compound: CCCN1CCC(N(CC2CCCCC2)C(=O)Nc2cccc(C(F)(F)F)c2)CC1 [Compound 40]

Pampa (PAMPA permeability): <1e-06 cm/s
Compound: CCCCS(=O)(=O)N1CCC(N(Cc2ccccc2)C(=O)Nc2cccc(C(F)(F)F)c2)CC1 [Compound 62]

Pampa (PAMPA permeability): <1e-06 cm/s
Compound: CCCS(=O)(=O)N1CCC(N(Cc2ccccc2)C(=O)Nc2cccc(C(F)(F)F)c2)CC1 [Compound 61]

Pampa (PAMPA permeability): 1300 ±79 ×10^−6 cm/s
Compound: CCCN1CCC(N(Cc2cccnc2)C(=O)Nc2cccc(C(F)(F)F)c2)CC1 [Compound 43]

Pampa (PAMPA permeability): >0.0022 cm/s
Compound: CCCN1CCC(N(Cc2ccco2)C(=O)Nc2cccc(C(F)(F)F)c2)CC1 [Compound 41]

Pampa (PAMPA permeability): <1e-06 cm/s
Compound: O=C(Nc1cccc(C(F)(F)F)c1)N(Cc1ccccc1)C1CCN(CC2CCCCC2)CC1 [Compound 58]

Pampa (PAMPA permeability): >0.0022 cm/s
Compound: CCCN1CCC(N(Cc2ccc3c(c2)OCO3)C(=O)Nc2cccc(C(F)(F)F)c2)CC1 [Compound 45, 1-(benzo[d][1,3]dioxol-5-ylmethyl)-1-(1-propylpiperidin-4-yl)-3-(3-(trifluoromethyl)phenyl)urea]

Pampa (PAMPA permeability): 1600 ± 1 ×10^−6 cm/s
Compound: CCCN1CCC(N(CCOC)C(=O)Nc2cccc(C(F)(F)F)c2)CC1 [Compound 39]

Pampa (PAMPA permeability): 1500 ±5.4 ×10^−6 cm/s
Compound: CCCN1CCC(N(CCC(C)C)C(=O)Nc2cccc(C(F)(F)F)c2)CC1 [Compound 38]
